The text below walks through data of patent publication US8513307B2, “N-phenylacetamide inhibitors of the enzyme SOAT-1 and pharmaceutical/cosmetic compositions comprised thereof” (Galderma Research & Development, priority 2007, dated 2013).

The test addresses T1, enzyme ACAT-1 (Homo sapiens, UniProt P35610).
T1 construct: endogenous in cells; host or cells: HepG2
T1 sequence (P35610 1-550): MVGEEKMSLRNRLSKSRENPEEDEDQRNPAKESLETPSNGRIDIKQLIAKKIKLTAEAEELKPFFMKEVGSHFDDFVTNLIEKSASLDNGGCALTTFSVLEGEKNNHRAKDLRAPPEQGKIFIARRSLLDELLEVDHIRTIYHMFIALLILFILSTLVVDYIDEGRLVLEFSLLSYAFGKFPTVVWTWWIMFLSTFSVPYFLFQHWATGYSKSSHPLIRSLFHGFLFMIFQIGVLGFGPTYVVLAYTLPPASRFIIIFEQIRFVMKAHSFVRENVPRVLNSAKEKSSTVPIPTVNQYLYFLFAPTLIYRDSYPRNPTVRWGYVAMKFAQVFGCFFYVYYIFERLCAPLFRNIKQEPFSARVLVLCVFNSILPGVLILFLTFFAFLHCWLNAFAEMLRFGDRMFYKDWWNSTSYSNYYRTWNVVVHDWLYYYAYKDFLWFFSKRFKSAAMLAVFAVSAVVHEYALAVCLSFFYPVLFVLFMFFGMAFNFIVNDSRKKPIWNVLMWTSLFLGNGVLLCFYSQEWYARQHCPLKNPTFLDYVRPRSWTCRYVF
In words: primary enzymatic test HepG2: NBD-cholesterol fluorescence test of inhibitory action on ACAT-1 (SOAT-1). In kind it is cell-based. As to conditions: HepG2 cells, NBD-cholesterol 1 μg/ml, incubation 6 h at 37° C., fluorescence excitation 490 nm, emission 540 nm. As for the experimental part: The compounds (I) according to the invention, as well as their pharmaceutically acceptable salts, solvates and/or hydrates, have inhibitory properties on the enzyme SOAT-1. This inhibitory activity on the enzyme SOAT-1 is measured according to a primary enzymatic test HepG2, as described in Example 16.
The compounds of formula (I) according to the invention were subjected to a test allowing their inhibitory action to be evaluated with respect to the enzyme ACAT-1 inspired by the following publication: “Identification of ACAT1- and ACAT2-specific inhibitors using a novel, cell-based fluorescence assay: individual ACAT uniqueness”, J. Lipid. Res (2004) vol 45, pages 378-386. The principle of this test is based on the employment of NBD-cholesterol, an analogue of cholesterol whose fluorescence depends on its environment. When this is present in a polar environment, it is weakly fluorescent although in a nonpolar environment it is strongly fluorescent. Free NBD-cholesterol locates itself in the cell membranes and is weakly fluorescent in this polar environment. When the NBD-cholesterol is esterified by ACAT, the ester of NBD-cholesterol locates itself in the nonpolar lipid droplets and is in that case strongly fluorescent.
The method below is applied: The HepG2 cells are incubated in the presence of NBD-cholesterol (1 μg/ml) and of the compound of formula (I) to be tested in black 96-well plates with a transparent base at a rate of 30 000 cells per well. After incubation for 6 h at 37° C., under 5% CO2, the medium is eliminated by turning over and the cells are washed with 2 times 100 μl of PBS. After addition of 50 μl of lysis buffer (NaPO4 10 mM, Igepal 1%), the plates are stirred for 5 min and read in fluorescence (excitation 490 nm, emission 540 nm) on a FUSION apparatus (Perkin-Elmer).

Structures are written as SMILES.

Regarding `CC(C)c1cccc(C(C)C)c1NC(=O)CN1CC2(CCCCC2)N(c2ccccc2)C1=O` [I.1, N-(2,6-Diisopropylphenyl)-2-(2-oxo-1-phenyl-1,3-diazaspiro[4.5]dec-3-yl)-acetamide], the IC50 was found to be 5.4 nM. The compound `Cc1ccc(N2C3(CCCCC3)CN(CC(=O)Nc3c(C(C)C)cccc3C(C)C)S2(=O)=O)cc1` [I.5, N-(2,6-Diisopropylphenyl)-2-(2,2-dioxo-1-p-tolyl-2lambda*6*-thia-1,3-di-azaspiro[4.5]dec-3-yl)acetamide] had an IC50 of 3.2 nM. `CCc1ccc(N2C(=O)N(CC(=O)Nc3c(C(C)C)cccc3C(C)C)CC23CCCCC3)cc1` [I.9, N-(2,6-Diisopropylphenyl)-2-[1-(4-ethylphenyl)-2-oxo-1,3-diazaspiro-[4.5]dec-3-yl]acetamide] displayed an IC50 of 7.1 nM. This IC50 lies about 2.2-fold higher than the previous one. As for `CCC1(CC)CN(CC(=O)Nc2c(C(C)C)cccc2C(C)C)C(=O)N1c1ccc(C)cc1` [I.13, 2-(4,4-Diethyl-2-oxo-3-p-tolylimidazolidin-1-yl)-N-(2,6-diisopropylphenyl)-acetamide], the figure is 0.9 nM.

Usually IC50 stands for the concentration that inhibits the measured activity by half.
